From US9511010B2, “Compounds useful in the treatment and/or care of the skin, hair and/or mucous membranes and their cosmetic or pharmaceutical compositions” (Lubrizol Advanced Materials, Inc., priority 2012, dated 2016)

Key:
[1] = system: HEKa primary keratinocytes; assay: Host cell reactivation (HCR) assay, activation of DNA repair in primary keratinocytes; type: cell-based, human; conditions: 24 hours, basal = 100
Procedure: The host cell reactivation (HCR) assay was used in HEKa primary keratinocytes to evaluate the capacity of the peptides of the invention to repair the damage to the DNA in a biologically functional way. 40,000 cells per well were seeded and they were co-transfected with a control plasmid which constitutively expresses the Firefly luciferase gene (pGL3), previously damaged by UVC, and with an undamaged plasmid which constitutively expresses the Renilla luciferase gene (vector pRluc-N1(h)).
Subsequently the cells were incubated with the compounds of the invention at 0.025 mg/mL and 0.5 mg/mL in EpiLife medium for 24 hours, after which the luminescence due to the activity of the Firefly and Renilla luciferases was measured using the Dual-Go Luciferase Assay System kit following the manufacturer's instructions. The carrier in which the compounds of the invention (EpiLife medium) were dissolved was used as a negative control. The activation percentage of the DNA repair for each sample was calculated standardizing the luminescence values of the Firefly luciferase with regard to the Renilla luciferase, subsequently standardizing with regard to the values of the negative control.
(§1) Each experiment was carried out three times in 3 independent experiments.

FOXO response elements = assay: Stimulation of the expression of proteins regulated by FOXO: luciferase reporter under FOXO response elements; type: cell-based, human; conditions: 0.5 mg/mL, 24 hours; carrier (0.05% DMSO) = 100
Procedure: The activation capacity of the FOXO response elements was evaluated in a human epithelial cell line stably transfected with the luciferase gene under the control of a regulatory sequence which contains different FOXO response elements which are in the promoters of the FOXO target genes. The activation capacity of the FOXO response elements indicates the expression of proteins regulated by FOXO. 30,000 cells per well were seeded in a total volume of 100 μL of RPMI 1640 culture medium. After 24 hours the cells with RPMI 1640 culture medium were washed and were incubated with the compounds of the invention at 0.5 mg/mL for 24 hours in a total volume of 100 μL per well. The carrier in which the compounds of the invention were dissolved was used (0.05% DMSO) as a negative control.
The measurement of the activity of the promoter was carried out using the Steady-Go Luciferase Assay System kit following the manufacturer's instructions. The luminescence values (RLU/sec) caused by the reaction between luciferase and the substrate were quantified with a luminometer and normalized by the cell number (absorbance at 630 nm), and the activity of the promoter was determined, which was standardized with regard to the negative control values.
as §1

Row | Stimulation Average (%) of the activation of the FOXO response factors (FOXO response elements) | Substance | Activation Average (%) of DNA repair, HCR assay ([1]; 0.025 mg/mL) | Activation Average (%) of DNA repair, HCR assay ([1]; 0.5 mg/mL)
1 | 143% | Ac-L-Tyr-L-Asn-L-Lys-Gly-L-Gln-L-Val-NH2 (Ac-YNKGQV-NH2) [Ac-SEQ ID NO: 1-NH2] | 150% | 290%
2 | 157% | Ac-L-Tyr-L-Asn-L-Lys-L-Leu-L-Gln-L-Val-NH2 (Ac-YNKLQV-NH2) [Ac-SEQ ID NO: 21-NH2] | 231% | 357%
3 | 106% | Ac-L-Tyr-L-Asn-L-Lys-L-Lys-L-Gln-L-Val-NH2 (Ac-YNKKQV-NH2) [Ac-SEQ ID NO: 8-NH2] | – | –
4 | 148% | Ac-L-Tyr-L-Asn-L-Pro-L-His-L-Gln-L-Val-NH2 (Ac-YNPHQV-NH2) [Ac-SEQ ID NO: 18-NH2] | – | –
5 | 129% | Ac-L-Tyr-L-Asn-L-Ser-L-His-L-Gln-L-Val-NH2 (Ac-YNSHQV-NH2) [Ac-SEQ ID NO: 41-NH2] | – | –
6 | 128% | Ac-L-Tyr-L-Asn-L-Ser-L-Lys-L-Gln-L-Val-NH2 (Ac-YNSKQV-NH2) [Ac-SEQ ID NO: 27-NH2] | – | –
7 | 131% | Ac-L-Tyr-L-Glu-L-Pro-L-His-L-Gln-L-Val-NH2 (Ac-YEPHQV-NH2) [Ac-SEQ ID NO: 40-NH2] | – | –
8 | 119% | Ac-L-Tyr-L-Glu-L-Ser-Gly-L-Gln-L-Val-NH2 (Ac-YESGQV-NH2) [Ac-SEQ ID NO: 16-NH2] | – | –
9 | 145% | Ac-L-Tyr-L-Glu-L-Ser-L-His-L-Gln-L-Val-NH2 (Ac-YESHQV-NH2) [Ac-SEQ ID NO: 19-NH2] | 191% | 304%
10 | 133% | Ac-L-Tyr-L-Glu-L-Ser-L-Lys-L-Gln-L-Val-NH2 (Ac-YESKQV-NH2) [Ac-SEQ ID NO: 24-NH2] | 295% | 271%
11 | 168% | Ac-L-Tyr-L-His-L-Lys-L-Leu-L-Gln-L-Val-NH2 (Ac-YHKLQV-NH2) [Ac-SEQ ID NO: 25-NH2] | – | –
12 | 125% | Ac-L-Tyr-L-His-L-Pro-L-His-L-Gln-L-Val-NH2 (Ac-YHPHQV-NH2) [Ac-SEQ ID NO: 28-NH2] | – | –
13 | 138% | Ac-L-Tyr-L-His-L-Ser-L-His-L-Gln-L-Val-NH2 (Ac-YHSHQV-NH2) [Ac-SEQ ID NO: 30-NH2] | – | –
14 | 124% | Ac-L-Tyr-L-His-L-Ser-L-Lys-L-Gln-L-Val-NH2 (Ac-YHSKQV-NH2) [Ac-SEQ ID NO: 26-NH2] | – | –
15 | 174% | Ac-L-Tyr-L-Tyr-L-Lys-L-Leu-L-Gln-L-Val-NH2 (Ac-YYKLQV-NH2) [Ac-SEQ ID NO: 23-NH2] | – | –
16 | 120% | Ac-L-Tyr-L-Tyr-L-Pro-L-His-L-Gln-L-Val-NH2 (Ac-YYPHQV-NH2) [Ac-SEQ ID NO: 29-NH2] | – | –
17 | 133% | Ac-L-Tyr-L-Tyr-L-Pro-L-Lys-L-Gln-L-Val-NH2 (Ac-YYPKQV-NH2) [Ac-SEQ ID NO: 42-NH2] | – | –
18 | 157% | Ac-L-Tyr-L-Tyr-L-Ser-L-His-L-Gln-L-Val-NH2 (Ac-YYSHQV-NH2) [Ac-SEQ ID NO: 20-NH2] | – | –
